Measured values published in patent publication US11167007B2, “FOXM1 modulators and uses thereof” (City of Hope, priority 2016, dated 2021).
“Also recorded” adds a separate entry of the source.

Key:
AR [1] = target: T1, AR (Homo sapiens, UniProt P10275); test: FRET-based AR conformation change reporter (CARY) in C2C12 muscle cells; assay type: cell-based, murine; set-up: Full length AR with cyan fluorescent protein (CFP) or yellow fluorescent protein (YFP) fused to either end (CARY); expressed in transfected cells; conditions: FRET or luciferase
T1 sequence (P10275 1-920): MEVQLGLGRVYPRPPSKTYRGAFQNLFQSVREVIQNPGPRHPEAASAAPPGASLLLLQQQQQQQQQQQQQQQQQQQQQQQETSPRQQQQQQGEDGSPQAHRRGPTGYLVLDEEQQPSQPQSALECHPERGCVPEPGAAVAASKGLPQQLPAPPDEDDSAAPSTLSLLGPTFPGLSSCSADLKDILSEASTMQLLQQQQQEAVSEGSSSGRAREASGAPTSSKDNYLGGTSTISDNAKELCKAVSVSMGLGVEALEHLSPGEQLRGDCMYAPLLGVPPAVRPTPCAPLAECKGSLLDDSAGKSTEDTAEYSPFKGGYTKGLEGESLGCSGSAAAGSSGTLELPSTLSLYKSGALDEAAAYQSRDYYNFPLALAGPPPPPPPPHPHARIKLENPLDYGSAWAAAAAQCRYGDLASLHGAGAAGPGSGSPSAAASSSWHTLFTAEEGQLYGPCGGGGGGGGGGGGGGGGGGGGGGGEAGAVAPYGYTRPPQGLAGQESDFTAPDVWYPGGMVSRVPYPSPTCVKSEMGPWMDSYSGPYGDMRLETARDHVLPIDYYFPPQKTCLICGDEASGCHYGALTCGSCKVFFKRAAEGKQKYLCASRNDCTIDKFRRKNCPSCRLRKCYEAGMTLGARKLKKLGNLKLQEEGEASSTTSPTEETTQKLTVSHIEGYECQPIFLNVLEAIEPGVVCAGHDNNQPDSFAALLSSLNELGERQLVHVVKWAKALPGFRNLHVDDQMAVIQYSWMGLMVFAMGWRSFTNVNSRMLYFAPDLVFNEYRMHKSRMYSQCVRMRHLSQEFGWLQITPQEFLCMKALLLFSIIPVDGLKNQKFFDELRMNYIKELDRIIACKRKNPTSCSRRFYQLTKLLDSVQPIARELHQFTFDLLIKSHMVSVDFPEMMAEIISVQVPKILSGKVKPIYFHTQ
Description: Creation of stable C-AR-Y reporter cell lines. Cell lines listed above were either transfected with a plasmid or a virus containing the CFP-AR-YFP construct preceding an IRES and hygromycin resistance gene and clonal stable cell lines selected. Qualification criteria for the transfected cell lines were described by Jones et al, ACS Chem Biol, 3(7):412-8 (2008).
Screen for AR-modulators. Screening was performed essentially as described by Jones et al, ACS Chem Biol, 3(7):412-8 (2008). Briefly, C-AR-Y reporter GTI-7 were transferred to 96 well plates and treated with library compounds for 24 hours. […] The compounds to be tested were from the NCI/DTP Open Chemical Repository's Approved Oncology Drugs Set II, Diversity Set II and Mechanistic Set. […] After 24 hours, medium was aspirated and FRET was measured as previously described using a monochromator-based fluorescence plate reader (M1000, Tecan, Inc.). Jones et al, ACS Chem Biol, 3(7):412-8 (2008). […]
In order to identify potential cell-type selective AR modulators, the FRET-based assay of AR conformation change was utilized. […] This produces an accurate and quantifiable read-out of AR activity. […] Candidate hits were then further evaluated by dose response. […] In addition to FRET, AR transcriptional activity was also assessed in several cell lines by transfecting cells with a luciferase reporter driven by the human PSA promoter. […]

AR [2] = target: T1, AR; test: Androgen-responsive luciferase reporter assay in ReNcell CX neuronal cells; assay type: cell-based; set-up: endogenous in cells; host or cells: ReNcell CX; conditions: FIG. 2B
From the text: Luciferase Reporter Assay. Cells were transfected using Lipofectamine Plus (Invitrogen) with a normalization plasmid (pRL-SV40, Promega) and an androgen responsive plasmid (MMTV-luciferase or PSA-luciferase) as described in Jones et al, ACS Chem Biol, 3(7):412-8 (2008), and, where indicated, with an shRNA plasmid targeting FOXM1 (adapted for mouse FOXM1 sequence targeting) a scrambled control shRNA plasmid, or ARQ24 or ARQ65 plasmids. Christensen et al, PLoS One, 8(1):e54556 (2013). The following day, cells and drugs were distributed to 96-well plates. 24 hours later, luciferase activity was assessed by a dual luciferase assay kit (Promega) on the Tecan plate reader. Samples were run in quadruplicates and a Student's t test was performed to determine significance, where p<0.05 was considered significant.
The ability of thiostrepton to inhibit AR activity in additional neuronal cells, including ReNcell CX cells PC12 cells, and in rat L6 skeletal muscle cells was examined (FIG. 2B). Donato et al, BMC Neurosci, 8:36 (2007); Yaffe, Proc Natl Acad Sci USA, 61(2):477-83 (1968).

Row | Structure (SMILES) | AR inhibitor (antagonist) activity in words (AR [1]) | inhibition of AR activity (luciferase) (AR [2])
1 | C=C(NC(=O)C(=C)NC(=O)c1csc(C2=N[C@@H]3c4csc(n4)[C@H]4NC(=O)c5csc(n5)[C@H]([C@](C)(O)[C@@H](C)O)NC(=O)[C@H]5CSC(=N5)/C(=C/C)NC(=O)[C@H]([C@@H](C)O)NC(=O)c5csc(n5)[C@]3(CC2)NC(=O)[C@H](C)NC(=O)C(=C)NC(=O)C(=C)NC(=O)[C@H](C(C)C)N[C@@H]2C=Cc3c([C@H](C)O)cc(nc3[C@H]2O)C(=O)O[C@@H]4C)n1)C(N)=O [NSC285116, siomycin A] | little to no activity; also recorded: not C2C12 muscle cells | 
2 | C=C(NC(=O)C(=C)NC(=O)c1csc(C2=N[C@@H]3c4csc(n4)[C@H]4NC(=O)c5csc(n5)[C@H]([C@](C)(O)[C@@H](C)O)NC(=O)[C@H]5CSC(=N5)/C(=C/C)NC(=O)[C@H]([C@@H](C)O)NC(=O)c5csc(n5)[C@]3(CC2)NC(=O)[C@H](C)NC(=O)C(=C)NC(=O)[C@H](C)NC(=O)[C@H]([C@@H](C)CC)N[C@@H]2C=Cc3c([C@H](C)O)cc(nc3[C@H]2O)C(=O)O[C@@H]4C)n1)C(N)=O [thiostrepton] |  | inhibited AR activity
